Experimental data published in US20260041695A1, “COMBINATION THERAPIES FOR TREATMENT OF BREAST CANCER” (Genentech, Inc., priority 2019, published 2026).
Where two headings read alike, the source gives them in different places.

What was measured:
[1] = test system: MCF-7 (PIK3CA mutant E545K, ER+) breast carcinoma xenograft; assay: MCF-7 xenograft efficacy; details: for % TGI: G 25 mg/kg oral QD 21 days, P 50 mg/kg oral QD 21 days, F 200 mg/kg s.c. weekly 3 weeks, groups of 12 animals; for CR / PR: number of animals, groups of 12, doses as for % TGI
Method: Implant 0.36 mg estradiol pellets, s.c. between the scapulae, 1-3 days prior to cell implantation.
Set up CR female NCr nu/nu mice with 1×10^7 MCF7 tumor cells in 0% Matrigel sc in mammary fat pad.
Perform a pair match when tumors reach an average size of 180-220 mm^3, and begin treatment.
Caliper Measurement: biwk to end
Endpoint TGD. Animals are monitored individually. The endpoint of the experiment is a tumor volume of 2000 mm^3 or 45 days, whichever comes first. Responders can be followed longer. When the endpoint is reached, the animals are euthanized per SOP.

[2] = Phase Ib GDC-0077 + letrozole with or without palbociclib: pharmacokinetics; format: in vivo, human
PI3K pathway [3] = assay: Phase I single-agent GDC-0077: pharmacodynamics; format: in vivo, human
Method: Pharmacodynamic activity was assessed pre- and on-study (after 2 weeks of daily GDC-0077 treatment) with FDG-PET scans, in tumor biopsies via immunohistochemistry (IHC), and in ctDNA samples (by FoundationACT).

[4] = test system: tumor cells bearing mutant PI3K; details: cited from earlier work
PI3K pathway [5] = assay: Phase Ib GDC-0077 + letrozole with or without palbociclib: pharmacodynamics; format: in vivo, human
Method: Pharmacodynamic activity was assessed pre- and on-study (after 2 weeks of daily GDC-0077 treatment), in tumor biopsies via immunohistochemistry (IHC), and in ctDNA samples (by FoundationACT).

[6] = test system: locally advanced or metastatic PIK3CA-mutant solid tumors; assay: Phase I single-agent GDC-0077: clinical activity (RECIST v1.1); format: in vivo, human
Method: Tumor assessments were performed by RECIST v1.1 at screening and every 8 weeks to assess preliminary anti-tumor activity.

[7] = Phase I/Ib GDC-0077 + fulvestrant: pharmacokinetics and food effect; format: in vivo, human
Method: Safety (NCI-CTCAE v4), PK, and preliminary antitumor activity (clinical benefit rate [CBR]: RECIST v1.1 stable disease for ≥24 weeks, partial response [PR], or complete response) were assessed. The effect of a standard high-fat meal on the PK of G was evaluated after a single dose and at steady state. Relevant signaling and pharmacodynamic (PD) biomarkers were assessed using circulating tumor (ct) DNA samples.

[8] = target: Class I PI3K alpha isoform (Homo sapiens, UniProt P42336); details: versus PI3K alpha; cited from earlier work
Class I PI3K alpha isoform, sequence (P42336 whole entry, canonical isoform): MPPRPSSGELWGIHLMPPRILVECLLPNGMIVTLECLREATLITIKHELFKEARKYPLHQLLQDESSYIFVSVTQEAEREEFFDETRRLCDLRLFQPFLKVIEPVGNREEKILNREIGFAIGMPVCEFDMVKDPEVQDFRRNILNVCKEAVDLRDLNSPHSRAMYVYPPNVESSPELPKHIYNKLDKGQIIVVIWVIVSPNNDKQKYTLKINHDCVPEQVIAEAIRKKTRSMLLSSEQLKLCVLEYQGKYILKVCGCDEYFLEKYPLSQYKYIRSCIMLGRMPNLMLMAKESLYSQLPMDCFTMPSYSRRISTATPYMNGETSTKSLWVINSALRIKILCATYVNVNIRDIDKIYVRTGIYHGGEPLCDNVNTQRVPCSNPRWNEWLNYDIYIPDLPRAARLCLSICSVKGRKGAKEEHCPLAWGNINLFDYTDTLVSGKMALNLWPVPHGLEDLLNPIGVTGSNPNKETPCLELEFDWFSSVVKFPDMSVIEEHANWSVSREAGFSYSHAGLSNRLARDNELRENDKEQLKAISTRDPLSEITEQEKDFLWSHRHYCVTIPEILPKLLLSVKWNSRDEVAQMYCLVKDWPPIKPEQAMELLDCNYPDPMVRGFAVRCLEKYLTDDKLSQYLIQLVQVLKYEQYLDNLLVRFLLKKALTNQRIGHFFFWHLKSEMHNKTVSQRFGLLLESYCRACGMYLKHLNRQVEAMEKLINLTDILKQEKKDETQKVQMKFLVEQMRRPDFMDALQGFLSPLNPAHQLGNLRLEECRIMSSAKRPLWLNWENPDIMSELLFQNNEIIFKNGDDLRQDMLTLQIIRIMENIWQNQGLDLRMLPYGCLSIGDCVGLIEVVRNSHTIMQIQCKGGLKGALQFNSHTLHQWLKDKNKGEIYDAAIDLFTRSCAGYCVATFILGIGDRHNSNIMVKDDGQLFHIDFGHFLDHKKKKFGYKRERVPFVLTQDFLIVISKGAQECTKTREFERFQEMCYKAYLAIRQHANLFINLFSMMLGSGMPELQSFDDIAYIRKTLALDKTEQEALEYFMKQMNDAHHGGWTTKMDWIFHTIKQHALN
Class I PI3K alpha isoform, sequence (P27986 whole entry partner, canonical isoform): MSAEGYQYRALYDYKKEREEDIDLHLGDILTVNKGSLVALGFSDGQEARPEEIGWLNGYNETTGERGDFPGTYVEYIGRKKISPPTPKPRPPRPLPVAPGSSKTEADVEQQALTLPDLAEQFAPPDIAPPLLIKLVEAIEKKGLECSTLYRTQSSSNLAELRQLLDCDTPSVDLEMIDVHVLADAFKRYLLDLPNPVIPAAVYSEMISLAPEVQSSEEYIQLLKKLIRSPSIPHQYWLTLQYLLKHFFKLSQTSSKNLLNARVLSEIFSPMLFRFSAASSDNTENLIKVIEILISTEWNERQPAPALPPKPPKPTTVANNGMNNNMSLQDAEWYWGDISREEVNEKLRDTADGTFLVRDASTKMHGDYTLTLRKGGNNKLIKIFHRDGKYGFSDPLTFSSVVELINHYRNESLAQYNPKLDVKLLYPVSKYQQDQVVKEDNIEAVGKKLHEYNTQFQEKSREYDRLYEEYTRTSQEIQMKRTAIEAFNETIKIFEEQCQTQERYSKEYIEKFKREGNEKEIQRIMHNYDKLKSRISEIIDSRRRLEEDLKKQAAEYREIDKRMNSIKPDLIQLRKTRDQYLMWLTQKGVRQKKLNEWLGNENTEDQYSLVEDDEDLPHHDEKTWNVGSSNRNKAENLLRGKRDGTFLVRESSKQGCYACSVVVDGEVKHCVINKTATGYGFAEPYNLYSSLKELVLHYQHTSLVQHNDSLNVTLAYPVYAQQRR

[9] = Phase I single-agent GDC-0077: pharmacokinetics; format: in vivo, human
Method: To evaluate single dose pharmacokinetics (PK), frequent blood sampling was performed up to 48 hours after the initial dose at Cycle 1 Day 1. Once daily dosing was initiated from Cycle 1 Day 8 and blood sampling to evaluate PK at steady state was conducted at Cycle 1 Day 15.

[10] = Phase I/Ib inavolisib + palbociclib + fulvestrant: pharmacokinetics; design: species or system human; details: in vivo
[11] = cited from earlier work
[12] = 19 patients with measurable disease
[13] = in combination with fulvestrant

## C[C@]12CC[C@@H]3c4ccc(O)cc4C[C@@H](CCCCCCCCC[S+]([O-])CCCC(F)(F)C(F)(F)F)[C@H]3[C@@H]1CC[C@@H]2O (stereo partly drawn) [fulvestrant, (7α,17β)-7-{9-[(4,4,5,5,5-pentafluoropentyl)sulfinyl]nonyl}estra-1,3,5(10)-triene-3,17-diol]
[1]
  % TGI: 52%
  CR: 0
  PR: 0

## C[C@H](Nc1ccc2c(c1)OCCn1cc(N3C(=O)OC[C@H]3C(F)F)nc1-2)C(N)=O [GDC-0077, (S)-2-((2-((S)-4-(difluoromethyl)-2-oxooxazolidin-3-yl)-5,6-dihydrobenzo[f]imidazo[1,2-d][1,4]oxazepin-9-yl)amino)propanamide]
[2]; Preliminary results
  plasma exposure of GDC-0077, single agent versus combination arms: similar
[2]; in vivo
  drug-drug interaction with concomitant medications (palbociclib and letrozole): no drug-drug interaction
PI3K pathway [3]; baseline and after 2 weeks of daily GDC-0077
  FDG-PET scans: metabolic responses at all dose levels evaluated
PI3K pathway [3]; in vivo
  PI3K pathway activity in paired tumor biopsies by IHC for phosphoproteins: Decreased
PI3K pathway [3]; over time, majority of specimens
  ctDNA PIK3CA mutant allele frequency: Decreased
[4]
  potency in tumor cells bearing mutant PI3K over wild type (WT) PI3K cells: increased potency
PI3K pathway [5]; GDC-0077 with letrozole with or without palbociclib
  PI3K pathway effectors (pAKT, pS6) in paired tumor biopsies: Robust PD downregulation
PI3K pathway [5]; between Cycle 1 Day 1 and Cycle 1 Day 15, majority of available samples
  PIK3CA mutant allele frequency by ctDNA: decreased
[1]
  % TGI: 35%
  CR: 0
  PR: 0
[6]; [12]
  best overall response rate: 26%
  confirmed overall response rate: 21%
[6]; 20 patients
  clinical benefit rate: 45%
[6]; of 20 patients
  clinical benefit: 9 patients
[6]; overall, 20 patients
  best overall response rate: 25%
  confirmed PR: 4 patients
  confirmed overall response rate: 20%
  partial response (PR): 5 patients
[6]; patients with tumors harboring PIK3CA mutations (conclusions)
  overall response rate: 210%
[7]; in vivo
  PK of GDC-0077 in combination with fulvestrant versus single-agent PK: similar
[7]; standard high-fat meal, single dose and steady state
  GDC-0077 exposures (Cmax and AUC0-24) in fasted or fed states: Comparable
[8]
  fold less potent biochemical inhibition for other Class I PI3K beta, delta, and gamma isoforms: > 300 fold
[9]; after a single dose and at steady state at MTD (9 mg)
  PK variability (% CV) for Cmax and AUC0-24: ~20%
[9]; human, plasma, oral, following a single dose, read-out: Mean half-life (t1/2) (converted)
  half-life: 18.1 h
[9]; single and multiple doses
  Plasma exposure versus dose: increased proportionally
[10]
  drug-drug interactions with concomitant therapies (palbociclib and fulvestrant [and metformin]): no drug-drug interactions
  pharmacokinetics of inavolisib in combination with palbociclib+fulvestrant versus single-agent inavolisib: similar
9 patients treated ≥5 months
  colitis: No colitis
QD, single agent
  MTD: 9 mg
At 12 mg (1 Grade 4 hyperglycemia, 1 Grade 3 fatigue)
  Dose-limiting toxicities: 2 patients
treatment-related diarrhea events all Grade 1-2
  treatment related high-grade gastrointestinal toxicities: No treatment related high-grade gastrointestinal toxicities

## N#Cc1ccc(C(c2ccc(C#N)cc2)n2cncn2)cc1 [letrozole, 4,4′-((1H-1,2,4-triazol-1-yl)methylene)dibenzonitrile, reference compound]
[2]; in vivo
  pharmacokinetics in combination with GDC-0077 versus single-agent PK reported in literature: comparable

## CC(=O)c1c(C)c2cnc(Nc3ccc(N4CCNCC4)cn3)nc2n(C2CCCC2)c1=O [palbociclib, 6-acetyl-8-cyclopentyl-5-methyl-2-(5-(piperazin-1-yl)pyridin-2-ylamino)pyrido[2,3-d]pyrimidin-7(8H)-one]
[2]; in vivo
  pharmacokinetics in combination with GDC-0077 versus single-agent PK reported in literature: comparable
[11]; [13]
  cycle delays: 36%
  dose holds: 54%
  patients required ≥1 dose reduction of palbociclib: 34%
[11]; in combination with letrozole
  cycle delays: 68%
  dose holds: 70%
  patients required ≥1 dose reduction of palbociclib: 36%
[1]
  % TGI: 45%
  CR: 0
  PR: 0
